Results reported in patent US20020072081A1, “Geranylgeranyl transferase inhibitor screening assay” (priority 2000, published 2002).

Biological target: T1, GGTase-I (Rattus norvegicus, UniProt P53610)
T1 construct: endogenous in cells; host or cells: H-ras transformed Rat1 fibroblast cell line (Hras2b/rat1)
Experiment: Cell Radiotracer Assay of Geranylgeranyl Transferase Inhibitor (CRAGGTI), radioligand binding to living cells
Settings: H-ras transformed Rat1 fibroblast cell line; specific binding, non-specific determined with 1000-fold molar excess of unlabeled Compound A; read-out: concentration of [^3H] Compound A that achieves half maximal binding to cells (apparent Kd)
Method: In an embodiment of the instant invention, the assay involves growing a cell line in 24-well cell culture plates as an adherent population of cells until the cell culture is nearly confluent. The concentration of radioligand required to achieve half-maximal specific binding to cells is determined by adding the radioligand at varying concentrations to cell culture media, and incubating this mixture with the cells for a defined period of time. To determine the level of non-specific binding of the radioligand, excess unlabeled GGTase-I inhibitor (unlabeled radioligand) is added to some of the wells. After incubation, the unbound radioligand is removed from the cells. […] The cell layer is then solubilized and analyzed. Having determined the concentration of radioligand that achieves half maximal binding to cells, one can determine the relative IC50s of test compounds by incubating varying concentrations of test compounds with the appropriate concentration of radioligand, and perform the cell incubations, washes, and solubilization steps as described. […]
Briefly, the method involves growing a cell line in 24-well cell culture plates as an adherent population of cells until the cell culture is nearly confluent. […] Compound A required to achieve half-maximal specific binding to cells is determined by adding [^3H] […] Having determined the concentration of [^3H] […]

Kd: ~300 pM
SMILES: [3H]C(O)(CN1CCN(Cc2cncn2Cc2ccc(C#N)cc2)CC1=O)C12CC3CC(CC(C3)C1)C2 (stereo not shown) [[^3H] Compound A, [^3H]-R/S 1-(4-Cyanobenzyl)-5-[1-(2-hydroxy-2-(adamant-1-yl)ethyl)-2-oxo-piperazin-4-vl-methyl]imidazole]
